Here are results for 35 molecules from ChEMBL document CHEMBL1201862, “PubChem BioAssay data set” (2004).

Among the targets are Cytochrome P450 3A4 (Homo sapiens, UniProt P08684); Cytochrome P450 2C9 (Homo sapiens, UniProt P11712); Cytochrome P450 2D6 (Homo sapiens, UniProt P10635).
In test [1] the target is T1, Replicative DNA helicase DnaB (Mycobacterium tuberculosis, UniProt P9WMR3).
T1 sequence (P9WMR3 whole entry): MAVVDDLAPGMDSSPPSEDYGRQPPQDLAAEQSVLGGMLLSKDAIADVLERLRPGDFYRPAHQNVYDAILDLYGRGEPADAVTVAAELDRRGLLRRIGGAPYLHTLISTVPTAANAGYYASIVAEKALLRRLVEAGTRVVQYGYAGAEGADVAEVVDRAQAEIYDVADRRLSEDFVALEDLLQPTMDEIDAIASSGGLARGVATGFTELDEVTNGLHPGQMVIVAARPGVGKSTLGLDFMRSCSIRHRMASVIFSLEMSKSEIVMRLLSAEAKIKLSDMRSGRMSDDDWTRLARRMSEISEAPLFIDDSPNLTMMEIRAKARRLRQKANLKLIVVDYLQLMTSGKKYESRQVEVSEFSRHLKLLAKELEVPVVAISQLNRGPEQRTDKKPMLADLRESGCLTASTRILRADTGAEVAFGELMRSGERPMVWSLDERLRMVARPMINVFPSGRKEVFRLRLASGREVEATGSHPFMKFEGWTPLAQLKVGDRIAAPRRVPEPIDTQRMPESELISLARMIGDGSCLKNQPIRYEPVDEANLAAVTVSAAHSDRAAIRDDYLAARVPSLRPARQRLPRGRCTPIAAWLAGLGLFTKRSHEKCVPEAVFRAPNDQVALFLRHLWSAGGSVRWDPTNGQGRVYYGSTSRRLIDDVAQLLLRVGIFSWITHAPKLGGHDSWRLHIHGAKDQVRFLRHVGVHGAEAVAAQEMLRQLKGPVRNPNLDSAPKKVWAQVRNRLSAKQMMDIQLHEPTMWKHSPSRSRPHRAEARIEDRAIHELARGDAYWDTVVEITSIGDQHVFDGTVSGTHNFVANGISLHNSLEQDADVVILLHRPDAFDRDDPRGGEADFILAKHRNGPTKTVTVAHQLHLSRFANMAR
As to the kind of experiment: DnaB intein splicing inhibitors, dose response, biochemical, cell-free fluorescence (AID 449749). In kind it is functional.

The next test has as its target T2, Protein RecA (Mycobacterium tuberculosis, UniProt P9WHJ3).
T2 sequence (P9WHJ3 whole entry): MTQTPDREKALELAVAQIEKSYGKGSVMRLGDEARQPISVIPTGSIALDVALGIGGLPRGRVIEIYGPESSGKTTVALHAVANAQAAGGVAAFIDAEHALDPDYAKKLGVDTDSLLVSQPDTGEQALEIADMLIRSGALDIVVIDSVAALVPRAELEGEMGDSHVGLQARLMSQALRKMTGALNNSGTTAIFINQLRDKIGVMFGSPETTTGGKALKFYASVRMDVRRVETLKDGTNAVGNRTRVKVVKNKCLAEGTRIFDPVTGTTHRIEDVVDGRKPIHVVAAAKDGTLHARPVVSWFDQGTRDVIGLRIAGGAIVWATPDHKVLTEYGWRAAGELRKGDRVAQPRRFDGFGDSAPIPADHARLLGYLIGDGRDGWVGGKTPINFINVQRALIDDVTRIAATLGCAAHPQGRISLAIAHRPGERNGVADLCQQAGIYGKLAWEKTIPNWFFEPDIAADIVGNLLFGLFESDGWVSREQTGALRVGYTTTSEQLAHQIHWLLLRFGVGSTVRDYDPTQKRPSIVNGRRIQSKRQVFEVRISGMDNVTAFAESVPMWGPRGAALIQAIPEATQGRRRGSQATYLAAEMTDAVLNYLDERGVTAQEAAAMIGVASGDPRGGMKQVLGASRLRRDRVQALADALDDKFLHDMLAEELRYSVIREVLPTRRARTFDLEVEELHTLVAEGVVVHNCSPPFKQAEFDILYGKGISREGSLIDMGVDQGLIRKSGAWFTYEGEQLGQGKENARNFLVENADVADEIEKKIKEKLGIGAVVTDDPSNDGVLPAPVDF
Kind of test: Fluorescence Cell-Free Homogeneous Dose Retest to Identify Inhibitors of RecA-Intein Splicing Activity. [Related pubchem assays (depositor defined):AID2097, AID2223, AID489010, AID492950]. The test is classed as functional.

A short description of test [2]: Luminescence Cell-Based Dose Retest to Confirm Inhibitors of Cancer Stem Cells. [Related pubchem assays (depositor defined):AID2717, AID2721]. The test is classed as functional. The note with it: Homo sapiens.
For another test, the target named is T3, Cytochrome P450 1A2 (Homo sapiens, UniProt P05177).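 Note: PubChem cytochrome P450 panel assay, CYP1A2 panel member.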
T3 sequence (P05177 whole entry): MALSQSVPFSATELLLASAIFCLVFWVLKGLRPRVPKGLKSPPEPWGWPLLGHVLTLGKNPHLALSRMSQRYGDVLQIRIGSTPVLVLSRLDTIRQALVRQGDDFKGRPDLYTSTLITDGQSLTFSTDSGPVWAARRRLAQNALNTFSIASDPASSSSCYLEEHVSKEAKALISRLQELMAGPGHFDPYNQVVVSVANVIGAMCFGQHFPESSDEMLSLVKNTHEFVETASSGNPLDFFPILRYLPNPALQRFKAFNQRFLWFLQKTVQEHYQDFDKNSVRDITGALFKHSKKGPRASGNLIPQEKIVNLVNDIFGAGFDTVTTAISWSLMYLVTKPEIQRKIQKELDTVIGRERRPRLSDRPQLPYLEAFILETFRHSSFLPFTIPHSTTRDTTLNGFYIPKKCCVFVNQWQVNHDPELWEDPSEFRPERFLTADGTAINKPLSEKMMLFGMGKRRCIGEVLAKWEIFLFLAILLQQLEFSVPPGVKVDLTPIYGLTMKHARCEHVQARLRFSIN

Values joined by “and” are separate entries in the source; they are usually repeats but may differ in a detail not shown here. Equal entries are not always repeated. Active and inactive are the calls of the source.

Sequence of Cytochrome P450 2D6 (P10635 whole entry): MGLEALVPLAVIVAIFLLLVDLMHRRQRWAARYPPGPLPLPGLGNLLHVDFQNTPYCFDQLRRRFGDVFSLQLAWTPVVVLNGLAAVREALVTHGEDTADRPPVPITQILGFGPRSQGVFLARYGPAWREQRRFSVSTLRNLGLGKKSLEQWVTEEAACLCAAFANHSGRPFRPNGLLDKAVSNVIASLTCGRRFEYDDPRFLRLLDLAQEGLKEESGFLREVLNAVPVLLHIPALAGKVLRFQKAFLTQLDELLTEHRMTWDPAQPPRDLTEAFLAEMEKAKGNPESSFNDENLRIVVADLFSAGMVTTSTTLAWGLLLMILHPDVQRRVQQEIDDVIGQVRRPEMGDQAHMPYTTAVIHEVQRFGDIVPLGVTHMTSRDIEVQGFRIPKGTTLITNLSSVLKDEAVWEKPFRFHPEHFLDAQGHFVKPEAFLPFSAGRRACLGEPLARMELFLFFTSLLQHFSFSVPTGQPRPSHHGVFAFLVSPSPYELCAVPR
Sequence of Cytochrome P450 3A4 (P08684 whole entry): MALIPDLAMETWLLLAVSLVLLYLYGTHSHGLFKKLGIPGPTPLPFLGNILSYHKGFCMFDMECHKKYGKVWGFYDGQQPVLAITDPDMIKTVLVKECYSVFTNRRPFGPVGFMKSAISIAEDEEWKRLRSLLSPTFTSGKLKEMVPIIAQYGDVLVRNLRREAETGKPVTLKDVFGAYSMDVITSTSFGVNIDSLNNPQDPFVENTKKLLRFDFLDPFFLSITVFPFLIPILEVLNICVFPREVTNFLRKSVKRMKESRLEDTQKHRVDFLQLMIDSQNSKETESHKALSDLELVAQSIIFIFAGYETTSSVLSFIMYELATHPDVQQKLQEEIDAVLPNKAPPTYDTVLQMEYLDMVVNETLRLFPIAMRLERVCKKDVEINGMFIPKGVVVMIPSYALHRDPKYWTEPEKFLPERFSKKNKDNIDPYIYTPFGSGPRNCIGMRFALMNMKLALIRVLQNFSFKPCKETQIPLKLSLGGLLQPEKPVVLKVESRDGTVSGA
Sequence of Cytochrome P450 2C9 (P11712 whole entry): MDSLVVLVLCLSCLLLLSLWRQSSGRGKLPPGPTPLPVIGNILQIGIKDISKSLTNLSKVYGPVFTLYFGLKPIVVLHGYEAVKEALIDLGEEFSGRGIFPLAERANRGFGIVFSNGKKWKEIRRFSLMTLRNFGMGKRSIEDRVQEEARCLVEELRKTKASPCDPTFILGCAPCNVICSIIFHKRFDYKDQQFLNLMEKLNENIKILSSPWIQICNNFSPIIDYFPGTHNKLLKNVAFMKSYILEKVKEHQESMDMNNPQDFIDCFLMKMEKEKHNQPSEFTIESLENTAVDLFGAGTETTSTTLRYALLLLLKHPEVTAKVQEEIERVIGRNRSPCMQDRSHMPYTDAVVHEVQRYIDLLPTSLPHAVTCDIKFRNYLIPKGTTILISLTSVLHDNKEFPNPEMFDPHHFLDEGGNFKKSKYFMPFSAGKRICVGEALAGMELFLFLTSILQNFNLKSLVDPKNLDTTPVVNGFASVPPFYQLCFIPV

As to `C[C@H](C(=O)c1ccccc1)[C@@H](c1ccccc1)N1CCOCC1`, at Cytochrome P450 3A4, the AC50 (in general, the concentration giving half of the maximal activity seen) is 0.501 µM (inconclusive). In the case of `COc1ccc(C2C(C#N)=C(N)Oc3[nH]nc(C)c32)cc1Cn1nnc2ccccc21` (stereo not given), the AC50 in test [1] was 7.76 µM (active). Moreover, the EC50 (commonly the midpoint of the concentration-response curve) at Protein RecA was 3.87 µM (active). Regarding `CCOC(=O)CN1C(=O)N[C@@H](c2cccc(C(F)(F)F)c2)C(C(C)=O)=C1C`, in test [1], the AC50 is > 380 µM (inactive). Moreover, the EC50 on Protein RecA was > 380 µM (inactive). Regarding `COC(=O)C1C(=O)C2=C(CC1C)NC(=O)CC2c1cccc(C)c1` (stereo not given), the AC50 in test [2] was > 195 µM (inactive); on Cytochrome P450 2C9 it was 15.8 µM (inconclusive). Take `CCc1cc2c(c(CC)n1)CCC(=O)N2Cc1ccc(-c2ccccc2-c2nnn[nH]2)cc1`: the AC50 on Cytochrome P450 2D6 is 10 µM (inconclusive); on Cytochrome P450 3A4, 20 µM (inconclusive); on Cytochrome P450 2C9, 25.1 µM (inconclusive).

`O=[N+]([O-])c1ccc(N2CCN(Cc3ccccc3)CC2)c(S(=O)(=O)N2CCOCC2)c1`: on Cytochrome P450 3A4, the AC50 was 12.6 µM (inconclusive). For the molecule `Cc1onc(-c2c(Cl)cccc2Cl)c1C(=O)Nc1ccc2c(c1)OCO2`, at Cytochrome P450 3A4, the AC50 was 1 µM (inconclusive).

In the case of `CNc1ncncc1-c1ccccc1C`, the AC50 on Cytochrome P450 2D6 is 31.6 µM (inconclusive); on Cytochrome P450 1A2 it was 12.6 µM (inconclusive). As for `CCC(CC)C(=O)Nc1cccc(/C(C)=N/NC(=O)c2c(Br)cnn2C)c1`, the AC50 was 12.6 µM (inconclusive) at Cytochrome P450 1A2 and 8.91 µM (inconclusive) at Cytochrome P450 2C9.

Turning to `Cc1noc(C)c1-c1ccc2ncnc(NCCN3CCOCC3)c2c1`, the AC50 on Cytochrome P450 2D6 is 31.6 µM (inconclusive). As for `CCOc1c2ccc(C(=O)NCc3ccc4c(c3)OCO4)cc2nn1CC`, the figures for the AC50 on Cytochrome P450 2D6 and at Cytochrome P450 1A2 were 15.8 µM (inconclusive) and 8.91 µM (inconclusive), respectively. Consider `Cc1n[nH]c2c1C(c1cccc(OC(=O)N3CCOCC3)c1)C(C#N)=C(N)O2` (stereo not given), for which the concentration at half-maximal activity (AC50) in test [1] is 31.2 µM (active). Further, on Protein RecA, the EC50 is 7.44 µM (active). Consider `COc1ccc(Oc2ncc3nc(-c4cccc(C#N)c4)c(=O)n(CCC#N)c3n2)cc1`, for which the AC50 at Cytochrome P450 1A2 and on Cytochrome P450 2C9 was 25.1 µM (inconclusive) throughout.

Consider `COc1ccc(CNC(=O)Cc2csc(Nc3nc(S)nc4ccccc34)n2)cc1`, for which the AC50 on Cytochrome P450 2D6 is 0.447 µM (inconclusive). For the molecule `N#Cc1cccc(-c2ccc3ncnc(NCc4ccccc4)c3c2)c1`, the values for the AC50 on Cytochrome P450 2D6, at Cytochrome P450 3A4 and on Cytochrome P450 2C9 were 10 µM (inconclusive), 15.8 µM (inconclusive) and 0.631 µM (inconclusive), respectively.

With `Cc1n[nH]c2c1C(c1ccsc1C)C(C#N)=C(N)O2` (stereo not given), the AC50 in test [1] was 10.1 µM (active). In addition, the concentration giving a half-maximal response (EC50) on Protein RecA was 3.77 µM (active). In the case of `O=C(CCl)Nc1ccc(N=Nc2ccccc2)cc1`, in test [1], the AC50 was 6.81 µM (active). Moreover, the EC50 at Protein RecA is 2.18 µM (active). For the molecule `COc1ccc2c(c1)c(=O)oc1c(C)c(OCC(=O)N3CCc4ccccc4C3)ccc12`, at Cytochrome P450 3A4, the AC50 is 3.16 µM (inconclusive). As for `NC(=O)CNC(=O)[C@@H]1CC2(CC(c3cccc([N+](=O)[O-])c3)=NO2)CN1C(=O)c1ccccc1` (stereo not given in full), the AC50 at Cytochrome P450 2D6 is 31.6 µM (inconclusive); on Cytochrome P450 2C9, 0.708 µM (inconclusive). For `CC12CC(NC(=O)N1c1cccc(C(=O)NCc3ccccc3)c1)c1ccccc1O2` (stereo not given), the AC50 on Cytochrome P450 2D6 was 28.2 µM (inconclusive); on Cytochrome P450 1A2 it was 25.1 µM (inconclusive). Turning to `Cc1nn(Cc2ccc([N+](=O)[O-])cc2)c(=O)n1-c1cccc(F)c1`, the concentration at half-maximal activity (AC50) at Cytochrome P450 2D6 is 25.1 µM (inconclusive); at Cytochrome P450 1A2, 17.8 µM (inconclusive). Regarding `COc1ccc(Oc2ncc3nc(CCc4ccccc4)c(=O)n(C)c3n2)cc1`, the AC50 at Cytochrome P450 3A4 is 7.94 µM (inconclusive).

Regarding `COc1ccc(OC)c(N2C(=O)C(Cl)=C(N3CCCCC3)C2=O)c1`, the AC50 in test [1] is 11.8 µM (active). Further, the EC50 on Protein RecA is 4.67 µM (active). In the case of `N=C(NOC(=O)Cc1ccc(Cl)cc1)c1cccnc1`, the AC50 at Cytochrome P450 2D6 is 6.31 µM (inconclusive); at Cytochrome P450 2C9, 12.6 µM (inconclusive). Regarding `O=C1Nc2ccccc2C1=Nc1sc2c(c1C(=O)NCCc1ccccc1)CCCC2`, the AC50 on Cytochrome P450 2D6 was 4.47 µM (inconclusive). As to `Cc1ccc(-n2nnc3c(SCC(=O)NCC4CCCO4)ncnc32)cc1` (stereo not given), in test [1], the AC50 is 4.72 µM (active). Moreover, the EC50 at Protein RecA was 4.23 µM (active). Turning to `CN(C)CCC[C@@]1(c2ccc(F)cc2)OCc2cc(C#N)ccc21` [ESCITALOPRAM], the AC50 at Cytochrome P450 2D6 is 39.8 µM (inconclusive) and 12.6 µM (inconclusive). As for `Nc1nc(Cl)cc(N2CCOCC2)n1`, the AC50 at Cytochrome P450 2D6 is 39.8 µM (inconclusive); on Cytochrome P450 1A2 it was 15.8 µM (inconclusive). As for `O=S(=O)(c1ccc(F)cc1)N1CCCC(CO)C1` (stereo not given), on Cytochrome P450 3A4, the AC50 is 25.1 µM (inconclusive). For `CCN(CC)S(=O)(=O)c1ccc(OC)c(NC(=O)CSc2ccccc2)c1`, the AC50 on Cytochrome P450 3A4 was 31.6 µM (inconclusive). As for `Cc1nn(-c2ccccc2)c2c1C(c1ccc(F)cc1)C(C#N)=C(N)O2` (stereo not given), the AC50 in test [1] is 3.55 µM (active). The half-maximal effective concentration (EC50) on Protein RecA is 2.93 µM (active). With `COc1ccccc1-c1cc(NCc2cccs2)ncn1`, the AC50 on Cytochrome P450 3A4 was 31.6 µM (inconclusive). As to `CCN(CC)C1=NC(=[N+](CC)CC)c2ccccc21`, the AC50 at Cytochrome P450 2D6 was 14.1 µM (inconclusive). Take `CC(=O)C1=C(O)[C@@H]2[C@@H]3c4c[nH]c5cccc(c45)C[C@@H]3C(C)(C)N2C1=O`: the AC50 at Cytochrome P450 2D6 was 39.8 µM (inconclusive); at Cytochrome P450 1A2, 12.6 µM (inconclusive); on Cytochrome P450 3A4, 10 µM (inconclusive).

Regarding `N#CCCn1[nH]c(-c2ccccc2)cc1=O`, in test [1], the AC50 is 5.47 µM (active). In addition, the EC50 at Protein RecA is 3.32 µM (active).
